Source: ChEMBL document CHEMBL5653615 (J Biol Chem, 2013)

Tests used:
[1] = molecular target: Epidermal growth factor receptor (Homo sapiens) (UniProt P00533); assay: Inhibition of human EGFR at 500 nM by HotSpot assay relative to control
[2] = molecular target: Angiopoietin-1 receptor (Homo sapiens) (UniProt Q02763); assay: Inhibition of human TEK at 500 nM by HotSpot assay relative to control
[3] = molecular target: Protein-tyrosine kinase 6 (Homo sapiens) (UniProt Q13882); assay: Inhibition of human BRK at 500 nM by HotSpot assay relative to control
[4] = molecular target: Mitogen-activated protein kinase 9 (Homo sapiens) (UniProt P45984); assay: Inhibition of human JNK2 at 500 nM by HotSpot assay relative to control
[5] = molecular target: Tyrosine-protein kinase CSK (Homo sapiens) (UniProt P41240); assay: Inhibition of human CSK at 500 nM by HotSpot assay relative to control
[6] = molecular target: Misshapen-like kinase 1 (Homo sapiens) (UniProt Q8N4C8); assay: Inhibition of human MINK1 at 500 nM by HotSpot assay relative to control
[7] = molecular target: Tyrosine-protein kinase Lck (Homo sapiens) (UniProt P06239); assay: Inhibition of human LCK at 500 nM by HotSpot assay relative to control
[8] = molecular target: Ribosomal protein S6 kinase alpha-2 (Homo sapiens) (UniProt Q15349); assay: Inhibition of human RSK3 at 500 nM by HotSpot assay relative to control
[9] = molecular target: Proto-oncogene tyrosine-protein kinase ROS (Homo sapiens) (UniProt P08922); assay: Inhibition of human ROS1 at 500 nM by HotSpot assay relative to control
[10] = molecular target: Tyrosine-protein kinase SYK (Homo sapiens) (UniProt P43405); assay: Inhibition of human SYK at 500 nM by HotSpot assay relative to control
[11] = molecular target: Serine/threonine-protein kinase MRCK alpha (Homo sapiens) (UniProt Q5VT25); assay: Inhibition of human CDC42BPA at 500 nM by HotSpot assay relative to control
[12] = molecular target: Cyclin-dependent kinase 2/cyclin E1 (Homo sapiens) (UniProt P24864+P24941); assay: Inhibition of human CDK2/cyclin E at 500 nM by HotSpot assay relative to control; type: protein-complex assay
[13] = molecular target: Ribosomal protein S6 kinase beta-1 (Homo sapiens) (UniProt P23443); assay: Inhibition of human RPS6KB1 at 500 nM by HotSpot assay relative to control
[14] = molecular target: CDK9/cyclin T1 (Homo sapiens) (UniProt O60563+P50750); assay: Inhibition of human CDK9/cyclin T1 at 500 nM by HotSpot assay relative to control; type: protein-complex assay
[15] = molecular target: Mitogen-activated protein kinase kinase kinase 8 (Homo sapiens) (UniProt P41279); assay: Inhibition of human COT1 at 500 nM by HotSpot assay relative to control
[16] = molecular target: Protein kinase C eta type (Homo sapiens) (UniProt P24723); assay: Inhibition of human PKCeta at 500 nM by HotSpot assay relative to control
[17] = molecular target: Mitogen-activated protein kinase 1 (Homo sapiens) (UniProt P28482); conditions: dose 500.0 nM
Description: Inhibition of human ERK2 at 500 nM by HotSpot assay relative to control

[18] = molecular target: Tyrosine-protein kinase ABL1 (Homo sapiens) (UniProt P00519); assay: Inhibition of human ABL1 at 500 nM by HotSpot assay relative to control
[19] = molecular target: SRSF protein kinase 1 (Homo sapiens) (UniProt Q96SB4); assay: Inhibition of human SRPK1 at 500 nM by HotSpot assay relative to control
[20] = molecular target: MAP kinase-activated protein kinase 2 (Homo sapiens) (UniProt P49137); assay: Inhibition of human MAPKAPK2 at 500 nM by HotSpot assay relative to control
[21] = molecular target: Serine/threonine-protein kinase pim-1 (Homo sapiens) (UniProt P11309); assay: Inhibition of human PIM1 at 500 nM by HotSpot assay relative to control
[22] = molecular target: T1, Mitogen-activated protein kinase 13 (Homo sapiens) (UniProt O15264); assay: Inhibition of human MAPK13 at 500 nM by HotSpot assay relative to control
T1 sequence (whole entry): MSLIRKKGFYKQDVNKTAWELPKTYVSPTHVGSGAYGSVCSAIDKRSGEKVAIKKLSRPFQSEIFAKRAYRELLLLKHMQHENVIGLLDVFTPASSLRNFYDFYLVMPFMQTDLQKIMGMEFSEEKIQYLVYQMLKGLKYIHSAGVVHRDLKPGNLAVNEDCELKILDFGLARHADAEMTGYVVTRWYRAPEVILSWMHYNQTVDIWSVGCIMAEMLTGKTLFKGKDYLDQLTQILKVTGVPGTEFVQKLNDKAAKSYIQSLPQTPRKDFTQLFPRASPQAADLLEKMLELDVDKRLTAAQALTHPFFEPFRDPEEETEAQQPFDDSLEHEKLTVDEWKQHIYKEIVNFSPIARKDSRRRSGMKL

[23] = molecular target: Ribosomal protein S6 kinase alpha-3 (Homo sapiens) (UniProt P51812); assay: Inhibition of human RSK2 at 500 nM by HotSpot assay relative to control
[24] = molecular target: Mitogen-activated protein kinase kinase kinase kinase 5 (Homo sapiens) (UniProt Q9Y4K4); assay: Inhibition of human KHS at 500 nM by HotSpot assay relative to control
[25] = molecular target: T2, Rhodopsin kinase GRK7 (Homo sapiens) (UniProt Q8WTQ7); assay: Inhibition of human GRK7 at 500 nM by HotSpot assay relative to control
T2 sequence (whole entry): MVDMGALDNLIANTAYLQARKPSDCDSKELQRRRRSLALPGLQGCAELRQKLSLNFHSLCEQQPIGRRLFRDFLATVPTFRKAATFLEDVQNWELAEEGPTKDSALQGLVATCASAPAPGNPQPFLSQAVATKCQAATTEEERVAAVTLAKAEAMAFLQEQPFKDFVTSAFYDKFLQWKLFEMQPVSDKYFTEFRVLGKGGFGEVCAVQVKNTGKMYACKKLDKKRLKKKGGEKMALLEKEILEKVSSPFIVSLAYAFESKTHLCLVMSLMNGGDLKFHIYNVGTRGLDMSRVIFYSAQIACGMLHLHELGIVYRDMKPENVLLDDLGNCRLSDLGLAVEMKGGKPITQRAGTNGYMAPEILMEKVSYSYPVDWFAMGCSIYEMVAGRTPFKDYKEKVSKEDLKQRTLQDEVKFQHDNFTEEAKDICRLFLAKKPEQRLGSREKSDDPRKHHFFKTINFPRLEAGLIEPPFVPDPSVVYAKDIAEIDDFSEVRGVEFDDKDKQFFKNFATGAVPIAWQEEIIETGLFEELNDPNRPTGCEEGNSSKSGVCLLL

Protein-tyrosine kinase 6 (Homo sapiens), sequence (Q13882 whole entry, looked up): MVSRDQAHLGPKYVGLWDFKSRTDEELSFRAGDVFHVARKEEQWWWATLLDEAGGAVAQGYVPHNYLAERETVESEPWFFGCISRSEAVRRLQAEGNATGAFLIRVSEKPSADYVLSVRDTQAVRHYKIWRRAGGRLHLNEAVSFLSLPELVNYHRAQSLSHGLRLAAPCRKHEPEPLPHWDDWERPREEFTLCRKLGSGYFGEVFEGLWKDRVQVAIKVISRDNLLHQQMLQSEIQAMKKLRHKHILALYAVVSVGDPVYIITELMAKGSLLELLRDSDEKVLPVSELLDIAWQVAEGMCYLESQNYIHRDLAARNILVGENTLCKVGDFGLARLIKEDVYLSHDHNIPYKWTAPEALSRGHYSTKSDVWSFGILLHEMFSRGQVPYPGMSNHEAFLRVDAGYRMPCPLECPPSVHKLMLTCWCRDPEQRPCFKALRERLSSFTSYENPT
MAP kinase-activated protein kinase 2 (Homo sapiens), sequence (P49137 whole entry, looked up): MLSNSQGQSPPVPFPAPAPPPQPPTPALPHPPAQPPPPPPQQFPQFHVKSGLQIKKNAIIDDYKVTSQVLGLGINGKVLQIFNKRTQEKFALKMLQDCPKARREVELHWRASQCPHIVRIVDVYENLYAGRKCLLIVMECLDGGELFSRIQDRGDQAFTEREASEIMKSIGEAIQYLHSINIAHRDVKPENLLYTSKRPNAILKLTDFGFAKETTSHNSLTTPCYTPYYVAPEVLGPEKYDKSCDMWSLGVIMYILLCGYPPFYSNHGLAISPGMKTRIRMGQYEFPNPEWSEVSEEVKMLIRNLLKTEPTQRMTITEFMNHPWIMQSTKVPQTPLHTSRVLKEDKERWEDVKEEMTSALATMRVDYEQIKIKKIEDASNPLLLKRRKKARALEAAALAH
Mitogen-activated protein kinase kinase kinase 8 (Homo sapiens), sequence (P41279 whole entry): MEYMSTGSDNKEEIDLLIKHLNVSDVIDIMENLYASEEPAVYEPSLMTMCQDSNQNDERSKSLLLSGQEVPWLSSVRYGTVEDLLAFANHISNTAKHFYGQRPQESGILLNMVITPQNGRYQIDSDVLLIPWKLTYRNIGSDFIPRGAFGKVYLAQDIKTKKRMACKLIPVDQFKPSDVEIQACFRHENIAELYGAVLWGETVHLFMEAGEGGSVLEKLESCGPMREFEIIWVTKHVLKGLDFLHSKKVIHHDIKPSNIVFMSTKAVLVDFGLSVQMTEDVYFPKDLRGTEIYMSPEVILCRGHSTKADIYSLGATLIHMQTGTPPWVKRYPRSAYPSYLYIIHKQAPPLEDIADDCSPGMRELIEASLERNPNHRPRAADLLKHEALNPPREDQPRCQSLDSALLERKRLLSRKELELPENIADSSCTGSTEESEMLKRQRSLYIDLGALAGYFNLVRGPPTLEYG
Mitogen-activated protein kinase kinase kinase kinase 5 (Homo sapiens), sequence (Q9Y4K4 whole entry, looked up): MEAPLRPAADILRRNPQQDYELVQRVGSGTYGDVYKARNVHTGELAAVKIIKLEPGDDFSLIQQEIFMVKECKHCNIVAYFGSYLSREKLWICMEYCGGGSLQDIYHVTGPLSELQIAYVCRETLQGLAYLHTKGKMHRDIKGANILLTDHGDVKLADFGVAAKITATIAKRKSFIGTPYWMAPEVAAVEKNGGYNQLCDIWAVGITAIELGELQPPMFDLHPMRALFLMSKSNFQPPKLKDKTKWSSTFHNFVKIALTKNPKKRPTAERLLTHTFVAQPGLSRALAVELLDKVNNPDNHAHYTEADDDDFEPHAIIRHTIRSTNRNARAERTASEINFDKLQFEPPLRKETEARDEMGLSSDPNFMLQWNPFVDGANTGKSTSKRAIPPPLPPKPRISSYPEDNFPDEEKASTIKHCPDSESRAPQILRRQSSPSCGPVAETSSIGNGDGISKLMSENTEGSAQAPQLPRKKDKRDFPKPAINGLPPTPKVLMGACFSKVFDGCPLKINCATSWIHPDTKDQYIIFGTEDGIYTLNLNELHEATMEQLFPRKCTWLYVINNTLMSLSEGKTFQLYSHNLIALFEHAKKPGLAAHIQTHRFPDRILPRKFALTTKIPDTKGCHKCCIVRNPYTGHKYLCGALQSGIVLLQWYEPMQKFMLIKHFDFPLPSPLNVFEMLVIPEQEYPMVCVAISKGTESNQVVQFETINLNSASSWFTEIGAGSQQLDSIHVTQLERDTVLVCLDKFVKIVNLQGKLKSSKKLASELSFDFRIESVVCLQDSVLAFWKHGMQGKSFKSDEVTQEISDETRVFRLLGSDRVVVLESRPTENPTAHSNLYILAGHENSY
Tyrosine-protein kinase Lck (Homo sapiens), sequence (P06239 2-509 limits assumed): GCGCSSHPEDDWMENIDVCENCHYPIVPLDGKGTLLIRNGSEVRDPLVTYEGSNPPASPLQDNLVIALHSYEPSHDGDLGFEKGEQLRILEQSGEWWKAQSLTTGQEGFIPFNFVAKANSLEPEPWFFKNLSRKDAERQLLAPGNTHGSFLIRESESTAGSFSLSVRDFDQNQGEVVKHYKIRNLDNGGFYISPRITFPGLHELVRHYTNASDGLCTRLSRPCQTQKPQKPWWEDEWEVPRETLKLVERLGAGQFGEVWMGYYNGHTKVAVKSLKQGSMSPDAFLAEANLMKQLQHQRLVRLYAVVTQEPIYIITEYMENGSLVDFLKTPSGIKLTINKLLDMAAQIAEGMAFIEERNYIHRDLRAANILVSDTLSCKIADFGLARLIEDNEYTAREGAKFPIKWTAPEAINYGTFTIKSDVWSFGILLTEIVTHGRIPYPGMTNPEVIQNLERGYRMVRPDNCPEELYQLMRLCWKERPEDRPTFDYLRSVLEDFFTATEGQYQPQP
SRSF protein kinase 1 (Homo sapiens), sequence (Q96SB4 whole entry): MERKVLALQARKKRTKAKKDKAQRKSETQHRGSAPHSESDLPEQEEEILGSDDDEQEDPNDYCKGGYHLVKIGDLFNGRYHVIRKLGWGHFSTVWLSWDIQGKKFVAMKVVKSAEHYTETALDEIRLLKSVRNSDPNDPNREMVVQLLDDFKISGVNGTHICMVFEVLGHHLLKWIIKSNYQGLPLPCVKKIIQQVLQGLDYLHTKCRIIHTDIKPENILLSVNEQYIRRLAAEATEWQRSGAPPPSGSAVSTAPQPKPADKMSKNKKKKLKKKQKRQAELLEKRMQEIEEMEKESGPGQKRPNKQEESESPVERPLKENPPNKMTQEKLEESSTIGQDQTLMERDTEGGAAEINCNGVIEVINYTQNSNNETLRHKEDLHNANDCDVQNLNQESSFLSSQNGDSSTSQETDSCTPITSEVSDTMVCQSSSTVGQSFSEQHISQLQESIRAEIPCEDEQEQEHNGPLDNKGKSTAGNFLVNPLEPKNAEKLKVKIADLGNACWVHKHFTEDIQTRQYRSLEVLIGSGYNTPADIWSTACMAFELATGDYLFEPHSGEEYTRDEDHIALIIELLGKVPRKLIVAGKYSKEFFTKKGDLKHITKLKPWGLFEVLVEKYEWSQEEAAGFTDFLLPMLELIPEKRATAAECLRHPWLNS
Serine/threonine-protein kinase pim-1 (Homo sapiens), sequence (P11309 whole entry, looked up): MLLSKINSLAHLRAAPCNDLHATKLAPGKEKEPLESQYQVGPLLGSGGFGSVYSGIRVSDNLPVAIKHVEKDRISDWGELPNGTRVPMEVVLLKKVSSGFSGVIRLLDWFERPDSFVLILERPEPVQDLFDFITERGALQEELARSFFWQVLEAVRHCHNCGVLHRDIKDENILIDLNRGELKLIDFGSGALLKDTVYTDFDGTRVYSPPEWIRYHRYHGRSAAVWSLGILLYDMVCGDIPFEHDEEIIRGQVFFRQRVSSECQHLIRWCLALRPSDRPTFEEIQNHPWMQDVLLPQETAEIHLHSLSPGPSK
Mitogen-activated protein kinase 1 (Homo sapiens), sequence (P28482 whole entry): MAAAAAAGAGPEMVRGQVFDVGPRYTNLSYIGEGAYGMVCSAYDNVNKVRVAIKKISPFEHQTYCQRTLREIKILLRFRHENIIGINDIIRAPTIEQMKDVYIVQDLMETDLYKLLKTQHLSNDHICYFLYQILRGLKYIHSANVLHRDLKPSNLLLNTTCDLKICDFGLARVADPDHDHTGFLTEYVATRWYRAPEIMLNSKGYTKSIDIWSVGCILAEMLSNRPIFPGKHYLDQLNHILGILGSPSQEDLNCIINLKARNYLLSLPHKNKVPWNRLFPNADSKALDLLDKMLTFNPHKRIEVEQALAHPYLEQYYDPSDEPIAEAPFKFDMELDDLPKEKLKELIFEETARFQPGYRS
Ribosomal protein S6 kinase alpha-2 (Homo sapiens), sequence (Q15349 whole entry): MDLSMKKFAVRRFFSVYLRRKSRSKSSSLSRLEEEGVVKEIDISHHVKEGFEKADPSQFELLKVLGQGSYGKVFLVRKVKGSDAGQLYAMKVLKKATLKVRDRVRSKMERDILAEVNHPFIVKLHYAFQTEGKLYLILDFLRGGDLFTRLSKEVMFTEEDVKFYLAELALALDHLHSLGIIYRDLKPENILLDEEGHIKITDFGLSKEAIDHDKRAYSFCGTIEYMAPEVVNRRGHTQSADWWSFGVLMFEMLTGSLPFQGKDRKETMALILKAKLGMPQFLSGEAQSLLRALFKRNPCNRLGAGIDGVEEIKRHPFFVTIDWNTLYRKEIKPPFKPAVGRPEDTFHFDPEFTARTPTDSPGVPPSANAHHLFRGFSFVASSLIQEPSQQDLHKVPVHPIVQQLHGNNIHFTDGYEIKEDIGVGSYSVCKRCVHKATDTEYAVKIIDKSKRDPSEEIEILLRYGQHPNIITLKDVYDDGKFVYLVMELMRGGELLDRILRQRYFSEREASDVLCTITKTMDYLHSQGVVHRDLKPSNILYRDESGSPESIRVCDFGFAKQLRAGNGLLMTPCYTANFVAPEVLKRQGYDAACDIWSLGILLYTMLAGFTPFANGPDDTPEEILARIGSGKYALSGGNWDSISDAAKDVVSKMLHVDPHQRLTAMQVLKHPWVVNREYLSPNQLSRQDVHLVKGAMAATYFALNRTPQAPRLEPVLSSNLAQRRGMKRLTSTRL

Compound	inhibition [1]	inhibition [2]	inhibition [3]	inhibition [4]	inhibition [5]	inhibition [6]	inhibition [7]	inhibition [8]	inhibition [9]	inhibition [10]	inhibition [11]	inhibition [12]	inhibition [13]	inhibition [14]	inhibition [15]	inhibition [16]	inhibition [17]	inhibition [18]	inhibition [19]	inhibition [20]	also measured
Nc1n[nH]c2nnc(-c3c(-c4ccccc4)nn4ccccc34)cc12	16.1%	3.45%	9.19%	51.6%	1.98%	27.1%	4.93%	3.51%	19.8%	2.6%	10.3%	-0.67%	2.28%	2.74%	4.98%	22.8%	12.8%	16.7%	16.3%	-5.26%	inhibition [21]: -0.39%; inhibition [22]: -0.81%; inhibition [23]: 1.29%; inhibition [24]: 49.7%; inhibition [25]: 3.29%
Oc1n[nH]c2nnc(-c3c(-c4ccccc4)nn4ccccc34)cc12	10%	4.05%	0.52%	11.7%	-1.06%	2.28%	-0.49%	-4.14%	2.73%	0.47%	6.74%	0.01%	-2.37%	3.66%	4.58%	3.76%	-0.62%	0.36%	10.4%	-5.6%	inhibition [21]: 0.66%; inhibition [22]: 3.76%; inhibition [23]: -2.36%; inhibition [24]: 3.59%; inhibition [25]: 6.89%
